The results in this text go back to patent US11325938B2, “CD73 inhibitors” (ORIC Pharmaceuticals, Inc., priority 2018, dated 2022).

This assay concerns the target CD73 (Homo sapiens (Human), UniProt P21589). The assay can be described thus: Biochemical assay: inhibition of CD73 activity (AMP hydrolysis, Malachite Green readout). To be noted: CD73 0.3208 nM, AMP 15 μM, 25 mM Tris-HCl pH 7.4, RT, absorbance 620 nm. A digest of the protocol:
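Phosphate from AMP hydrolysis (15 μM AMP, 10 min, RT) was detected by Malachite Green absorbance to give IC50s. Enzyme at 320 pM was first exposed 15 min to compounds, dosed from 100 μM in ½-log steps, in Tris pH 7.4 buffer with MgCl2, Brij-35 and BSA.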

Chain of CD73 (P21589 27-574): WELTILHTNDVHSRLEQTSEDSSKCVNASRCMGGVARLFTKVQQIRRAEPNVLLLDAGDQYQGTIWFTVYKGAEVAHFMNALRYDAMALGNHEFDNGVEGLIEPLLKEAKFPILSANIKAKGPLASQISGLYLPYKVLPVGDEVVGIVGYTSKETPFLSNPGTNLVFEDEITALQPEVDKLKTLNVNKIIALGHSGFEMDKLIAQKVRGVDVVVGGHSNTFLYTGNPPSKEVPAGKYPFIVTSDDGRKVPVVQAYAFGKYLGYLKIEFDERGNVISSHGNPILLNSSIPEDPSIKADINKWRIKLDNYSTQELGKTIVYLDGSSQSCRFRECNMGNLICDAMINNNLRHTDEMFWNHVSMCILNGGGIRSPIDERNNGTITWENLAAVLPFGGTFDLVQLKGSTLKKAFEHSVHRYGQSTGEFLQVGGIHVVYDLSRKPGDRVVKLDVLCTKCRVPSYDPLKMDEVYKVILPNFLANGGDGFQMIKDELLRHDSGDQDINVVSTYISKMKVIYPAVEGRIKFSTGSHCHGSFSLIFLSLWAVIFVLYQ

A word on the IC50: it is the concentration that gives 50% inhibition. Read a high IC50 as weaker potency. As to `O=P(O)(O)COC[C@H]1O[C@@H](n2nnc3c(NC4CCCC4)cc(Cl)nc32)[C@H](O)[C@@H]1O` [Example 17, ((((2R,3S,4R,5R)-5-(5-Chloro-7-(cyclopentylamino)-3H-[1,2,3]triazolo[4,5-b]pyridin-3-yl)-3,4-dihydroxytetrahydrofuran-2-yl)methoxy)methyl)phosphonic acid], the IC50 lay in the range of 0.1 to 1 µM. `C[C@](CO)(OC[C@H]1O[C@@H](n2ncc3c(NC4CCCC4)nc(CO)nc32)[C@H](O)[C@@H]1O)P(=O)(O)O` [Example 127, ((S)-2-(((2R,3S,4R,5R)-5-(4-(cyclopentylamino)-6-(hydroxymethyl)-1H-pyrazolo[3,4-d]pyrimidin-1-yl)-3,4-dihydroxytetrahydrofuran-2-yl)methoxy)-1-hydroxypropan-2-yl)phosphonic acid] returned an IC50 not above 0.1 µM.

Compound `C[C@](CO)(OC[C@H]1O[C@@H](n2ncc3c(NC4CCCC4)cc(Cl)nc32)[C@H](O)[C@@H]1O)P(=O)(O)O` (racemic) [Example 193, rac-((R)-2-(((2S,3R,4S,5S)-5-(6-chloro-4-(cyclopentylamino)-1H-pyrazolo[3,4-b]pyridin-1-yl)-3,4-dihydroxytetrahydrofuran-2-yl)methoxy)-1-hydroxypropan-2-yl)phosphonic acid] returned a half-maximal inhibitory concentration (IC50) not above 0.1 µM.

For `C[C@](CO)(OC[C@H]1O[C@@H](n2nnc3c(NC4CCCC4)cc(Cl)nc32)[C@H](O)[C@@H]1O)P(=O)(O)O` [Example 140, ((S)-2-(((2R,3S,4R,5R)-5-(5-chloro-7-(cyclopentylamino)-3H-[1,2,3]triazolo[4,5-b]pyridin-3-yl)-3,4-dihydroxytetrahydrofuran-2-yl)methoxy)-1-hydroxypropan-2-yl)phosphonic acid], the half-maximal inhibitory concentration (IC50) was not above 0.1 µM. On to `COCC(C)(OC[C@H]1O[C@@H](n2nnc3c(NC4CCCC4)nc(Cl)nc32)[C@H](O)[C@@H]1O)P(=O)(O)O` (stereo partly drawn) [Example 82, (2-(((2R,3S,4R,5R)-5-(5-chloro-7-(cyclopentylamino)-3H-[1,2,3]triazolo[4,5-d]pyrimidin-3-yl)-3,4-dihydroxytetrahydrofuran-2-yl)methoxy)-1-methoxypropan-2-yl)phosphonic acid], for which the 50% inhibitory concentration (IC50) is not above 0.1 µM.

`COCC(C)(OC[C@H]1O[C@@H](n2ncc3c(NC4CCCC4)cc(Cl)nc32)[C@H](O)[C@@H]1O)P(=O)(O)O` (stereo partly drawn) [Example 111, (2-(((2R,3S,4R,5R)-5-(6-chloro-4-(cyclopentylamino)-1H-pyrazolo[3,4-b]pyridin-1-yl)-3,4-dihydroxytetrahydrofuran-2-yl)methoxy)-1-methoxypropan-2-yl)phosphonic acid]: the concentration for half-maximal inhibition (IC50) is not above 0.1 µM. Under `O=C(O)c1cccc(CC(CO)(OC[C@H]2O[C@@H](n3ncc4c(NC5CCCC5)nc(Cl)nc43)[C@H](O)[C@@H]2O)P(=O)(O)O)c1` (mixture of isomers) [Example 190, rac-3-(2-(((2R,3S,4R,5R)-5-(6-chloro-4-(cyclopentylamino)-1H-pyrazolo[3,4-d]pyrimidin-1-yl)-3,4-dihydroxytetrahydrofuran-2-yl)methoxy)-3-hydroxy-2-phosphonopropyl)benzoic acid] stands not above 0.1 µM.

For the compound `CN(c1nc(Cl)nc2c1cnn2[C@@H]1O[C@H](COC(CO)(CO)P(=O)(O)O)[C@@H](O)[C@H]1O)C1CCCC1` (racemic) [Example 211, rac-(2-(((2R,3S,4R,5R)-5-(6-chloro-4-(cyclopentyl(methyl)amino)-1H-pyrazolo[3,4-d]pyrimidin-1-yl)-3,4-dihydroxytetrahydrofuran-2-yl)methoxy)-1,3-dihydroxypropan-2-yl)phosphonic acid], the IC50 is not above 0.1 µM. As for `O=P(O)(O)C(OC[C@H]1O[C@@H](n2ncc3c(NC4CCCC4)nc(Cl)nc32)[C@H](O)[C@@H]1O)C(F)(F)F` (stereo partly drawn) [Example 80, (1-(((2R,3S,4R,5R)-5-(6-chloro-4-(cyclopentylamino)-1H-pyrazolo[3,4-d]pyrimidin-1-yl)-3,4-dihydroxytetrahydrofuran-2-yl)methoxy)-2,2,2-trifluoroethyl)phosphonic acid], the IC50 is 0.1 to 1 µM. Turning to `O=P(O)(O)CS(=O)(=O)C[C@H]1O[C@@H](n2nnc3c(NC4CCCC4)cc(Cl)nc32)[C@H](O)[C@@H]1O` [Example 16, (((((2S,3S,4R,5R)-5-(5-Chloro-7-(cyclopentylamino)-3H-[1,2,3]triazolo[4,5-b]pyridin-3-yl)-3,4-dihydroxytetrahydrofuran-2-yl)methyl)sulfonyl)methyl)phosphonic acid], the IC50 was not above 0.1 µM.

With `C[C@@H](P(=O)(O)O)S(=O)(=O)C[C@H]1O[C@@H](n2ncc3c(NC4CCCC4)nc(Cl)nc32)[C@H](O)[C@@H]1O` [Example 6, ((S)-1-((((2S,3S,4R,5R)-5-(6-Chloro-4-(cyclopentylamino)-1H-pyrazolo[3,4-d]pyrimidin-1-yl)-3,4-dihydroxytetrahydrofuran-2-yl)methyl)sulfonyl)ethyl)phosphonic acid], the IC50 is not above 0.1 µM. The compound `O=P(O)(O)C(CO)OC[C@H]1O[C@@H](n2nnc3c(NC4CCCC4)nc(Cl)nc32)[C@H](O)[C@@H]1O` (stereo partly drawn) [Example 58, (1-(((2R,3S,4R,5R)-5-(5-Chloro-7-(cyclopentylamino)-3H-[1,2,3]triazolo[4,5-d]pyrimidin-3-yl)-3,4-dihydroxytetrahydrofuran-2-yl)methoxy)-2-hydroxyethyl)phosphonic acid] gave a concentration for half-maximal inhibition (IC50) not above 0.1 µM.

In turn, `O=P(O)(O)C(CO)(COC1CCC1)OC[C@H]1O[C@@H](n2ncc3c(NC4CCCC4)nc(Cl)nc32)[C@H](O)[C@@H]1O` (mixture of isomers) [Example 163, rac-(2-(((2R,3S,4R,5R)-5-(6-chloro-4-(cyclopentylamino)-1H-pyrazolo[3,4-d]pyrimidin-1-yl)-3,4-dihydroxytetrahydrofuran-2-yl)methoxy)-1-cyclobutoxy-3-hydroxypropan-2-yl)phosphonic acid] registered a concentration for half-maximal inhibition (IC50) not above 0.1 µM. For `O=P(O)(O)C(CO)(CCO)OC[C@H]1O[C@@H](n2ncc3c(NC4CCCC4)nc(Br)nc32)[C@H](O)[C@@H]1O` (stereo partly drawn) [Example 37, (2-(((2R,3S,4R,5R)-5-(6-bromo-4-(cyclopentylamino)-1H-pyrazolo[3,4-d]pyrimidin-1-yl)-3,4-dihydroxytetrahydrofuran-2-yl)methoxy)-1,4-dihydrobutan-2-yl)phosphonic acid], the concentration for half-maximal inhibition (IC50) was not above 0.1 µM. For the compound `COC[C@@](Cc1nn[nH]n1)(OC[C@H]1O[C@@H](n2ncc3c(NC4CCCC4)nc(Cl)nc32)[C@H](O)[C@@H]1O)P(=O)(O)O` (racemic) [Example 212, rac-((R)-2-(((2S,3R,4S,5S)-5-(6-chloro-4-(cyclopentylamino)-1H-pyrazolo[3,4-d]pyrimidin-1-yl)-3,4-dihydroxytetrahydrofuran-2-yl)methoxy)-1-methoxy-3-(2H-tetrazol-5-yl)propan-2-yl)phosphonic acid], the half-inhibitory concentration (IC50) is not above 0.1 µM. With `C[C@@H]1CCC[C@@H]1Nc1nc(Cl)nc2c1cnn2[C@@H]1O[C@H](COC(CO)(Cc2nn[nH]n2)P(=O)(O)O)[C@@H](O)[C@H]1O` (mixture of isomers) [Example 209, rac-(2-(((2R,3S,4R,5R)-5-(6-chloro-4-(((1S,2R)-2-methylcyclopentyl)amino)-1H-pyrazolo[3,4-d]pyrimidin-1-yl)-3,4-dihydroxytetrahydrofuran-2-yl)methoxy)-1-hydroxy-3-(2H-tetrazol-5-yl)propan-2-yl)phosphonic acid] the figure was not above 0.1 µM.
